Data taken from ChEMBL document CHEMBL3124856, “Design, synthesis, and pharmacological evaluation of a novel series of pyridopyrazine-1,6-dione γ-secretase modulators” (J Med Chem, 2014).
In brackets after ≈: the same amount, converted by molar mass.

Assays:
MDR1 (human) [1] = assay: Efflux ratio of permeability in MDCK cells expressing human MDR1; type: ADME, cell-based, Canis lupus familiaris; conditions: dog
[2] = Apparent intrinsic clearance in human liver microsomes; type: ADME; conditions: read-out: CLH(app)
[3] = Apparent intrinsic clearance in rat liver microsomes; type: ADME; conditions: read-out: CLH(app)
Gamma-secretase [4] = assay: Modulation of gamma-secretase (unknown origin) expressed in CHO cells overexpressing human wild type APP assessed as reduction of amyloid beta 42 level after 24 hrs by ELISA; type: cell-based
[5] = Apparent intrinsic clearance in human hepatocytes; type: ADME, cell-based, Hepatocyte; conditions: read-out: CLH(app)
Cytochrome P450 1A2 = molecular target: T1, Cytochrome P450 1A2 (Homo sapiens, UniProt P05177); assay: Inhibition of CYP1A2 (unknown origin); type: ADME
T1 sequence (P05177 whole entry): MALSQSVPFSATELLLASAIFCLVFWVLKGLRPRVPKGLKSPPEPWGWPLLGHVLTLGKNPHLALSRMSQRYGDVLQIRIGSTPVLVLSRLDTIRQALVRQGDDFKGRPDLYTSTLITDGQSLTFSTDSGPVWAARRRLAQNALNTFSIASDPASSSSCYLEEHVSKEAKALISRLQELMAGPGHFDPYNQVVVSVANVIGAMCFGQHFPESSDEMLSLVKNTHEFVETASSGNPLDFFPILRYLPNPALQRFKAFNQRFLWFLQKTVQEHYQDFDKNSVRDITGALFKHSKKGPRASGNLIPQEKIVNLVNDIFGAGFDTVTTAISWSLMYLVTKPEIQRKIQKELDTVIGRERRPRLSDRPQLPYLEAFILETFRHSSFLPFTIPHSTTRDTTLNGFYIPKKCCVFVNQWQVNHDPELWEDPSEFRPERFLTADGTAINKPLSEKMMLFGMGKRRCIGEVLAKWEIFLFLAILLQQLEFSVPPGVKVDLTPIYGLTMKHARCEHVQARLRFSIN

MDR1 (human) [6] = assay: Permeability from apical to basolateral side in MDCK cells expressing human MDR; type: ADME, cell-based, Canis lupus familiaris; conditions: dog, read-out: permeability
[7] = Plasma concentration in rat at 5 mg/kg, po after 1 hr; type: ADME, organism-based; set-up: dose 5 mg/kg, route oral
[8] = Volume of distribution at steady state in rat at 1 mg/kg, iv; type: ADME, organism-based; set-up: dose 1 mg/kg, route intravenous; conditions: in vivo, read-out: Vdss
[9] = Aqueous kinetic solubility of the compound at pH 6.5; type: physicochemical; conditions: read-out: Kinetic_solubility
Cytochrome P450 2C8 = molecular target: T2, Cytochrome P450 2C8 (Homo sapiens, UniProt P10632); assay: Inhibition of CYP2C8 (unknown origin); type: ADME
T2 sequence (P10632 whole entry): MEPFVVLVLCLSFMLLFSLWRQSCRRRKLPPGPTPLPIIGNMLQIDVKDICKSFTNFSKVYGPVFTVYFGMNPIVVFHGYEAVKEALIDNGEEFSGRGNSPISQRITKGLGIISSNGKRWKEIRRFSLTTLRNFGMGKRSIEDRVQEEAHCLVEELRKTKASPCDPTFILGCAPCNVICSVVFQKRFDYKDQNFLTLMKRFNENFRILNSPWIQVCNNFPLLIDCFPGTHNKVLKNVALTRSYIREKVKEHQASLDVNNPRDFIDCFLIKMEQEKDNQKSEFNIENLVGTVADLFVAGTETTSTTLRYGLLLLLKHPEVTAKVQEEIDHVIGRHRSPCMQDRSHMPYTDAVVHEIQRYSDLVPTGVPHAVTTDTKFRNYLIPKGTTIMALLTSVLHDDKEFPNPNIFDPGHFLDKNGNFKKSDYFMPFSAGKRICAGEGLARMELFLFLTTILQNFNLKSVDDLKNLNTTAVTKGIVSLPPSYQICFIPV

[10] = Passive apparent permeability from apical to basolateral side in RRCK cells; type: ADME, cell-based, Canis lupus familiaris, MDCKII-LE; conditions: dog, MDCK
[11] = Drug uptake in rat brain at 5 mg/kg, po after 1 hr; type: ADME, organism-based; set-up: dose 5 mg/kg, route oral; conditions: read-out: Drug uptake
Gamma-secretase [12] = assay: Modulation of gamma secretase in HEK293 NdeltaE cells assessed as inhibition of notch signalling; type: cell-based, Homo sapiens
[13] = Fraction unbound in rat plasma; type: ADME, cell-free
[14] = Fraction unbound in rat brain; type: ADME, tissue-based
Cytochrome P450 2C9 = Cytochrome P450 2C9 (Homo sapiens, UniProt P11712); assay: Inhibition of CYP2C9 (unknown origin); type: ADME
[15] = Lipophilicity, log D of the compound by shake flask method; type: physicochemical; conditions: octanol/water
[16] = Clearance in rat at 1 mg/kg, iv; type: ADME, organism-based; set-up: dose 1 mg/kg, route intravenous; conditions: in vivo
Cytochrome P450 3A4 = Cytochrome P450 3A4 (Homo sapiens, UniProt P08684); assay: Inhibition of CYP3A4 (unknown origin); type: ADME
[17] = Ratio of unbound drug level in brain to plasma in rat; type: ADME
Cytochrome P450 2C19 = Cytochrome P450 2C19 (Homo sapiens, UniProt P33261); assay: Inhibition of CYP2C19 (unknown origin); type: ADME
Cytochrome P450 2D6 = Cytochrome P450 2D6 (Homo sapiens, UniProt P10635); assay: Inhibition of CYP2D6 (unknown origin); type: ADME
[18] = Half life in rat at 1 mg/kg, iv; type: ADME, organism-based; set-up: dose 1 mg/kg, route intravenous; conditions: in vivo
[19] = Ratio of drug uptake in brain to plasma in rat at 5 mg/kg, po after 1 hr; type: ADME, organism-based; set-up: dose 5 mg/kg, route oral; conditions: read-out: BPR
[20] = Bioavailability in rat at 1 mg/kg, iv and 5 mg/kg, po; type: ADME, organism-based; conditions: in vivo

Chain of Cytochrome P450 2D6 (P10635 whole entry): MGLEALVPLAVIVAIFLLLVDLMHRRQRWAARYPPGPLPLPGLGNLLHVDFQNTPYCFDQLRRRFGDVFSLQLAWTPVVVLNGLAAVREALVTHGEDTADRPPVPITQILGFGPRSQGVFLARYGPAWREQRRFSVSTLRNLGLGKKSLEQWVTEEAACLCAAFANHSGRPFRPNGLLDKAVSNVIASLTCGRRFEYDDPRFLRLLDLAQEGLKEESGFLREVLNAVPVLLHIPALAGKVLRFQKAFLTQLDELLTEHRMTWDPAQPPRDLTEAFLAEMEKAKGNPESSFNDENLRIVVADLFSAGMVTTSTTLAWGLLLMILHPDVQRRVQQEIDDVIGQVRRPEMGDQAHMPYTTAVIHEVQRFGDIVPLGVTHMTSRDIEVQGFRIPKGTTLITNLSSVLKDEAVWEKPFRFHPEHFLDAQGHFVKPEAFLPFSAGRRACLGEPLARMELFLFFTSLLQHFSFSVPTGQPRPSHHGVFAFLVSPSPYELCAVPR
Chain of Cytochrome P450 2C19 (P33261 whole entry): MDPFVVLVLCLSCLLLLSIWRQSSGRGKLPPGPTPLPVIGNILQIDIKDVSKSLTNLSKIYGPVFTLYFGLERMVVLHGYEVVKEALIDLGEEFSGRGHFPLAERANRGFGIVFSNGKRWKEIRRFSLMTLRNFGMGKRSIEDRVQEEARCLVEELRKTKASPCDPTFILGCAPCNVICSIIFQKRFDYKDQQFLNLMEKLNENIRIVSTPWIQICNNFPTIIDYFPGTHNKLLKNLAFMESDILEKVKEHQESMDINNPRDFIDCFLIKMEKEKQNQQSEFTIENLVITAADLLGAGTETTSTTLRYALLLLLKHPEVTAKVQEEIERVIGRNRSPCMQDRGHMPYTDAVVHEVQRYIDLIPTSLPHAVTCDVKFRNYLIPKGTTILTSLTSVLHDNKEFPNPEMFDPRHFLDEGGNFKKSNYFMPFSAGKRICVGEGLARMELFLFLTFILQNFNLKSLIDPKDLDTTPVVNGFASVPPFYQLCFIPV
Chain of Cytochrome P450 3A4 (P08684 whole entry): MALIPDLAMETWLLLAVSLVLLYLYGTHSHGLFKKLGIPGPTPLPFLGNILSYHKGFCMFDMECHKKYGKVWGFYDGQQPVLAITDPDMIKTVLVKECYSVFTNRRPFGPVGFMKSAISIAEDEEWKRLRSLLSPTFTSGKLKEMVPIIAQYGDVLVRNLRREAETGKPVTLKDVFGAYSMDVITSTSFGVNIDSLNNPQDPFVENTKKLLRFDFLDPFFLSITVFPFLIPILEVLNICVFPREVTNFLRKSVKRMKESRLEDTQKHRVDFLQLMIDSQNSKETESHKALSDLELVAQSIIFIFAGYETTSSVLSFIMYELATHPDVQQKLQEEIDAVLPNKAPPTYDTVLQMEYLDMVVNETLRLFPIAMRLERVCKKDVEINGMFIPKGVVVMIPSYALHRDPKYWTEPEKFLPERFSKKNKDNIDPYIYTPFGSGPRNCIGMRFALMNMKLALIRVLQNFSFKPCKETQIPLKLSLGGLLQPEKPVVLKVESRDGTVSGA
Chain of Cytochrome P450 2C9 (P11712 whole entry): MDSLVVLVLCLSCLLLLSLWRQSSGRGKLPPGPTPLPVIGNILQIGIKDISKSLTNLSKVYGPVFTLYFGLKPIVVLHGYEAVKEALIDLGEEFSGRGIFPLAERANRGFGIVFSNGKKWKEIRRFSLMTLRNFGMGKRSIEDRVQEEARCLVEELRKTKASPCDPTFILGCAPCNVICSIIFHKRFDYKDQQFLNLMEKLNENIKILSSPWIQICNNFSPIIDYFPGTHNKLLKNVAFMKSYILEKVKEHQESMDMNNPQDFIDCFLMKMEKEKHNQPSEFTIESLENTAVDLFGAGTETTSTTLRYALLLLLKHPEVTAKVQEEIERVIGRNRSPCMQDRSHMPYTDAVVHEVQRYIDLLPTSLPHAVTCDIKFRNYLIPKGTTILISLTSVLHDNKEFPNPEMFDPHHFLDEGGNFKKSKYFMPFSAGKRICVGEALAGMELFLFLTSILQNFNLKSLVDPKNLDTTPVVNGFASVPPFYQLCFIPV

Cc1cn(-c2ccc3n(c2=O)CCN(CCOc2ccc(C(F)(F)F)cc2)C3=O)cn1
efflux ratio (MDR1 (human) [1]): 1.5
CLint scaled [2]: < 9.7 mL/min/kg
CLint scaled [3]: 40.3 mL/min/kg
IC50 (Gamma-secretase [4]): 1.27 µM

Cc1cn(-c2ccc3c(=O)n(Cc4cccc(C(F)(F)F)c4)ccc3c2O)cn1
efflux ratio (MDR1 (human) [1]): 1.1
CLint scaled [2]: 12.3 mL/min/kg
IC50 (Gamma-secretase [4]): 0.92 µM

Cc1cn(-c2ccc3n(c2=O)CCN(Cc2cccc(C(F)(F)F)c2)C3=O)cn1
efflux ratio (MDR1 (human) [1]): 1.5
CLint scaled [2]: < 8 mL/min/kg
CLint scaled [3]: < 25.4 mL/min/kg
IC50 (Gamma-secretase [4]): 1.63 µM

Cc1cn(-c2ccc3n(c2=O)CCN(CCOc2cccc(C(F)(F)F)c2)C3=O)cn1
efflux ratio (MDR1 (human) [1]): 1.2
CLint scaled [2]: < 8 mL/min/kg
CLint scaled [3]: 79.4 mL/min/kg
IC50 (Gamma-secretase [4]): 0.53 µM

Cc1cn(-c2ccc3n(c2=O)CCN(CCOc2ccccc2Cl)C3=O)cn1
efflux ratio (MDR1 (human) [1]): 1.5
CLint scaled [2]: < 10.4 mL/min/kg
CLint scaled [3]: 117 mL/min/kg
IC50 (Gamma-secretase [4]): 1.5 µM

Cc1cn(-c2ccc3n(c2=O)CCN(CC2(c4ccc(Cl)cc4)CC2)C3=O)cn1
efflux ratio (MDR1 (human) [1]): 1.7
CLint scaled [5]: < 2.8 mL/min/kg
CLint scaled [2]: 8.1 mL/min/kg
CLint scaled [3]: 482 mL/min/kg
IC50 (Gamma-secretase [4]): 0.41 µM

Cc1cn(-c2ccc3n(c2=O)CCN(CCOc2ccc(F)cc2C(F)(F)F)C3=O)cn1
IC50 (Cytochrome P450 1A2): > 30 µM
efflux ratio (MDR1 (human) [1]): 1.5
Papp A→B (MDR1 (human) [6]): 13.1 ×10⁻⁶ cm/s
concentration at 1 h [7]: 964 ng/mL
Vd [8]: 1.91 L/kg
solubility kinetic [9]: 177 µM (≈ 79.7 µg/mL)
IC50 (Cytochrome P450 2C8): 19 µM
Papp A→B [10]: 17.7 ×10⁻⁶ cm/s
concentration at 1 h [11]: 718 ng/mL
IC50 (Gamma-secretase [12]): > 50 µM
CLint scaled [2]: < 8.8 mL/min/kg
fraction unbound [13]: 0.055
fraction unbound [14]: 0.032
IC50 (Cytochrome P450 2C9): > 30 µM
logD [15]: 2.75
clearance [16]: 14.3 mL/min/kg
IC50 (Cytochrome P450 3A4): > 30 µM
Kp uu [17]: 0.43
IC50 (Cytochrome P450 2C19): > 30 µM
IC50 (Cytochrome P450 2D6): > 30 µM
half-life [18]: 2.09 h
Kp at 1 h [19]: 0.74
CLint scaled [3]: 44.1 mL/min/kg
bioavailability [20]: 100%
IC50 (Gamma-secretase [4]): 0.252 µM

COc1cc(C(=O)NCc2cccc(C(F)(F)F)c2)ccc1-n1cnc(C)c1
CLint scaled [2]: 27.8 mL/min/kg
IC50 (Gamma-secretase [4]): 0.66 µM
